TGI and GI50 data for nine compounds are collected here from PubChem BioAssay (NCI).

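48-hour exposure; five concentrations; linearly interpolated endpoints. GI50 marks 50% less growth. Definition used: TGI = concentration required for complete inhibition of growth.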

What all share (test): inhibition of tumour cell growth, NCI panel, 48 h
For test [1], the system named is CAKI-1 renal.
The test system of test [2] is HS 578T breast.
Test [3] has as its system K-562 leukemia.
Test [4] deals with KM12 colon.
Test [5] relates to NCI-H226 lung.
The subject of test [6] is OVCAR-5 ovarian.
In test [7] the test system is OVCAR-8 ovarian.
The test system of test [8] is SK-MEL-2 melanoma.
Test [9] concerns SK-MEL-28 melanoma.
Test [10] concerns T-47D breast.

In the case of `CC12CC(Br)(Br)C(=O)C3C1CCCC32`, the TGI in test [1] worked out at 6.05 µM; in [2] it was 45.2 µM; in test [3] it was 11.7 µM; in [4] it was 28.3 µM; in test [5] it was 27.2 µM; in test [6] it was 32.1 µM. Besides, the TGI came to 12.7 µM in test [7], 30.4 µM in [8], 6.61 µM in [9] and 6.4 µM in [10].
Turning to `Cc1nc2ccccc2c(/C=C/c2ccc(F)cc2)c1C(=O)/C=C/c1ccccc1`, the GI50 in test [1] is 1.58 µM; in [2], 5.15 µM; in test [3], 2440 nM; in test [4] it was 2380 nM; in test [5] it was 1.85 µM; in [6], 1.92 µM. Besides, the GI50 is 2620 nM in test [7], 3.22 µM in test [8], 2.36 µM in test [9] and 1.55 µM in [10]. The TGI in test [1] was 3.83 µM; in test [2], greater than 100 µM; in [3], 8.24 µM; in test [4] it was 6.82 µM; in [5], 4.16 µM; in test [6] it was 3.95 µM. Besides, the TGI stood at 7.75 µM in test [7], 15.8 µM in [8], 5.67 µM in test [9] and 9.87 µM in [10].
`O=NN(CC(=O)NNc1ccccc1)CC(=O)NNc1ccccc1`: the GI50 in [1] is 3.77 µM; in [2], greater than 100 µM; in [3] it was 579 nM; in test [4] it was 893 nM; in test [5], greater than 100 µM; in [6], greater than 100 µM. Also, the figures for the GI50 in test [7], in [8] and in test [10] were 9880 nM, greater than 100 µM and 6.1 µM, respectively. Besides, the TGI in test [1], in test [2], in test [3], in [4], in [5] and in test [6] was greater than 100 µM each time. The TGI in test [7], in test [8], in [9] and in test [10] was greater than 100 µM throughout.
In the case of `C[C@H]1CCC/C=C/[C@@H]2C[C@H](O)C[C@H]2[C@H](O)C(O)C(O)C(=O)O1` (some centres undefined), the GI50 was 3.78 µM in test [1]; 0.702 µM in [2]; 2380 nM in test [3]; 396 nM in test [4]; 0.189 µM in test [5]; 6.24 µM in test [6]. In addition, the GI50 in test [7] was 1160 nM; in [8], 3.81 µM; in [9] it was 1.25 µM; in test [10] it was 5.96 µM. The TGI in test [1] was 46 µM; in test [2], greater than 100 µM; in test [3], greater than 23.6 µM; in [4], 1.38 µM; in [5], 0.399 µM; in test [6], greater than 100 µM. Besides, the TGI in [7] is 5.11 µM; in [8], greater than 23.9 µM; in test [9], greater than 100 µM; in test [10], greater than 100 µM.
For the compound `Nc1ccccc1SC(CC(=O)c1ccccc1)c1c(Cl)cccc1Cl` (centres undefined), the GI50 is 4.9 µM in [1]; 4.48 µM in test [2]; 2760 nM in [3]; 2260 nM in test [4]; 14.9 µM in [5]; 4.29 µM in test [6]. Further, the GI50 was 2630 nM in test [7], 6.33 µM in test [8], 11.6 µM in test [9] and 2.81 µM in test [10]. Further, the TGI in test [1] came to 39.9 µM; in test [2], 49.5 µM; in [3] it was 7.69 µM; in [4], 5.4 µM; in [5] it was 40.6 µM; in test [6], 15.7 µM. The TGI in test [7] worked out at 9.61 µM; in [8] it was 18.2 µM; in test [9], 23.9 µM; in test [10] it was 13.4 µM.
Take `O=C1C2C3C=CC(C2C(=O)N1CN1CCOCC1)C1C2C(=O)N(CN4CCOCC4)C(=O)C2C31` (centres undefined): the TGI in test [1] was greater than 100 µM; in test [2] it was greater than 100 µM; in test [3] it was greater than 79.3 µM; in [4], greater than 63.4 µM; in [5] it was greater than 84.3 µM; in test [6] it was greater than 92.7 µM. Moreover, the TGI in test [7] was greater than 69.2 µM; in [8] it was greater than 61.1 µM; in test [9], greater than 66 µM; in [10], greater than 100 µM.
For the compound `C(#Cc1ccccc1C#Cc1cnccn1)c1cnccn1`, the GI50 in [1] was 12.5 µM; in test [2], 34.9 µM; in test [3], 9020 nM; in test [4], 26100 nM; in test [5], 28.1 µM; in test [6] it was greater than 61.7 µM. Further, the GI50 was 38200 nM in test [7], greater than 38.9 µM in [8], 46.9 µM in [9] and 39.7 µM in test [10]. The TGI in [1] was 51.5 µM; in test [2], greater than 100 µM; in test [3], greater than 44.3 µM; in test [4], 68.3 µM; in test [5], greater than 78.4 µM; in [6] it was greater than 100 µM. For the same compound, the TGI in test [7] was greater than 72.6 µM; in [8], greater than 61.1 µM; in test [9], greater than 100 µM; in [10], greater than 100 µM.
Turning to `CN(C)Cc1nsc(N(C)C)n1`, the TGI in test [1], in test [2], in [3], in test [4], in test [5] and in test [6] was greater than 100 µM each time. For the same compound, the TGI in test [7], in test [8], in test [9] and in test [10] was greater than 100 µM in each case.
`CCn1cnc(C[C@H](NC(=O)[C@@H](NC(=O)Nc2cc(C(F)(F)F)cc(C(F)(F)F)c2)C(C)(C)C)C(=O)OC)c1`: the GI50 in test [1] is greater than 10 µM; in test [2], greater than 10 µM; in test [3], greater than 10000 nM; in test [4], greater than 10000 nM; in test [5], greater than 10 µM; in test [6], greater than 10 µM. Further, the GI50 in [7] is greater than 10000 nM; in test [8], greater than 10 µM; in test [9], greater than 10 µM; in test [10] it was greater than 10 µM. In addition, the TGI in test [1], in test [2], in test [3], in test [4], in [5] and in test [6] was greater than 10 µM throughout. Moreover, the TGI in test [7], in test [8], in [9] and in test [10] was greater than 10 µM each time.
